Test results: publication PMC5218480 (PLoS ONE, 2017)

System: MV-4-11 cells
Assay: Gene expression microarray analysis (Affymetrix PrimeView) and GSEA
Assay type: cell-based, human
Design: RFU PODN (11730768_x_at) / Fold change /veh PODN (11730768_x_at) / RFU LINC00158 (11744669_a_at) / Fold change /veh LINC00158 (11744669_a_at) / RFU DUSP10 (11751237_a_at) / Fold change /veh DUSP10 (11751237_a_at) / RFU ID3 (11757404_x_at) / Fold change /veh ID3 (11757404_x_at) / RFU PLEKHG5 (11737974_s_at) / Fold change /veh PLEKHG5 (11737974_s_at) / RFU LRRC4B (11730491_at) / Fold change /veh LRRC4B (11730491_at) / RFU GIMAP4 (11747438_a_at) / Fold change /veh GIMAP4 (11747438_a_at) / RFU KRT8 (11758183_x_at) / Fold change /veh KRT8 (11758183_x_at) / RFU CNN1 (11734310_a_at) / Fold change /veh CNN1 (11734310_a_at) / RFU VPS37D (11726825_at) / Fold change /veh VPS37D (11726825_at) / RFU C10orf10 (11716522_x_at) / Fold change /veh C10orf10 (11716522_x_at) / RFU KIR2DL2 /// KIR2DL4 /// KIR2DL5A /// KIR2DL5B /// KIR2DS1 /// KIR2DS2 /// KIR2DS3 /// KIR2DS4 /// KIR3DL3 /// KIR3DL3 /// KIR3DS1 (11738374_at) / Fold change /veh KIR2DL2 /// KIR2DL4 /// KIR2DL5A /// KIR2DL5B /// KIR2DS1 /// KIR2DS2 /// KIR2DS3 /// KIR2DS4 /// KIR3DL3 /// KIR3DL3 /// KIR3DS1 (11738374_at) / RFU C1QL1 (11718748_at) / Fold change /veh C1QL1 (11718748_at) / RFU TMPRSS4 (11747572_a_at) / Fold change /veh TMPRSS4 (11747572_a_at) / RFU HAMP (11756126_x_at) / Fold change /veh HAMP (11756126_x_at) / RFU RNFT2 (11725882_a_at) / Fold change /veh RNFT2 (11725882_a_at) / RFU NR4A2 (11747474_a_at) / Fold change /veh NR4A2 (11747474_a_at) / RFU ABCC12 (11746883_a_at) / Fold change /veh ABCC12 (11746883_a_at) / RFU TMEM136 (11760407_x_at) / Fold change /veh TMEM136 (11760407_x_at) / RFU CLDN22 /// WWC2 (11732394_at) / Fold change /veh CLDN22 /// WWC2 (11732394_at) / RFU HLA-DPB1 (11760878_x_at) / Fold change /veh HLA-DPB1 (11760878_x_at) / RFU SPINT1 (11716480_a_at) / Fold change /veh SPINT1 (11716480_a_at) / RFU GAP43 (11754022_s_at) / Fold change /veh GAP43 (11754022_s_at) / RFU A4GNT (11735810_at) / Fold change /veh A4GNT (11735810_at) / RFU PRB3 (11715151_x_at) / Fold change /veh PRB3 (11715151_x_at) / RFU TUBB4B (11761932_at) / Fold change /veh TUBB4B (11761932_at) / RFU CAPN14 (11732068_a_at) / Fold change /veh CAPN14 (11732068_a_at) / RFU TMCC2 (11721928_a_at) / Fold change /veh TMCC2 (11721928_a_at) / RFU IRGQ (11745062_a_at) / Fold change /veh IRGQ (11745062_a_at) / RFU FAM174B (11720279_a_at) / Fold change /veh FAM174B (11720279_a_at) / RFU TMPRSS4 (11748680_a_at) / Fold change /veh TMPRSS4 (11748680_a_at) / RFU FAM212B (11763350_a_at) / Fold change /veh FAM212B (11763350_a_at) / RFU PLEKHG5 (11743358_a_at) / Fold change /veh PLEKHG5 (11743358_a_at) / RFU ZSCAN30 (11745921_a_at) / Fold change /veh ZSCAN30 (11745921_a_at) / RFU CMKLR1 (11741424_a_at) / Fold change /veh CMKLR1 (11741424_a_at) / RFU LOC101060620 /// MAPK8IP1 (11723275_at) / Fold change /veh LOC101060620 /// MAPK8IP1 (11723275_at) / RFU SPTSSB (11747773_x_at) / Fold change /veh SPTSSB (11747773_x_at) / RFU PRSS12 (11739890_at) / Fold change /veh PRSS12 (11739890_at) / RFU BIN1 (11741810_x_at) / Fold change /veh BIN1 (11741810_x_at) / RFU WNT11 (11732464_a_at) / Fold change /veh WNT11 (11732464_a_at) / RFU C10orf10 (11716521_a_at) / Fold change /veh C10orf10 (11716521_a_at) / RFU C5orf56 (11738089_at) / Fold change /veh C5orf56 (11738089_at) / RFU CYB561 (11721691_x_at) / Fold change /veh CYB561 (11721691_x_at) / RFU ANKRD19P (11752326_a_at) / Fold change /veh ANKRD19P (11752326_a_at) / RFU OR2T12 /// OR2T33 /// OR2T8 (11738714_s_at) / Fold change /veh OR2T12 /// OR2T33 /// OR2T8 (11738714_s_at) / RFU VCAN (11748164_a_at) / Fold change /veh VCAN (11748164_a_at) / RFU JSRP1 (11732532_at) / Fold change /veh JSRP1 (11732532_at) / RFU KRTAP10-11 (11738290_x_at) / Fold change /veh KRTAP10-11 (11738290_x_at) / RFU MYO3A (11730013_a_at) / Fold change /veh MYO3A (11730013_a_at) / RFU EBF3 (11725865_a_at) / Fold change /veh EBF3 (11725865_a_at) / RFU CAMK2N1 (11719241_x_at) / Fold change /veh CAMK2N1 (11719241_x_at) / RFU C5orf56 (11738088_a_at) / Fold change /veh C5orf56 (11738088_a_at) / RFU OLFML3 (11715873_a_at) / Fold change /veh OLFML3 (11715873_a_at) / RFU LOC100653217 /// NTM (11731650_a_at) / Fold change /veh LOC100653217 /// NTM (11731650_a_at) / RFU MAPK11 (11762145_a_at) / Fold change /veh MAPK11 (11762145_a_at) / RFU FIZ1 (11724087_x_at) / Fold change /veh FIZ1 (11724087_x_at) / RFU OASL (11726364_x_at) / Fold change /veh OASL (11726364_x_at) / RFU SOX15 (11748057_x_at) / Fold change /veh SOX15 (11748057_x_at) / RFU CD79A (11719716_a_at) / Fold change /veh CD79A (11719716_a_at) / RFU HIST1H1D (11736915_at) / Fold change /veh HIST1H1D (11736915_at) / RFU CASKIN2 (11723855_a_at) / Fold change /veh CASKIN2 (11723855_a_at) / RFU LOC730098 (11760151_x_at) / Fold change /veh LOC730098 (11760151_x_at) / RFU OR4N2 (11742367_at) / Fold change /veh OR4N2 (11742367_at) / RFU PRRT2 (11749266_a_at) / Fold change /veh PRRT2 (11749266_a_at) / RFU SNX32 (11753110_a_at) / Fold change /veh SNX32 (11753110_a_at) / RFU CDHR5 (11726645_a_at) / Fold change /veh CDHR5 (11726645_a_at) / RFU RCAN1 (11760418_a_at) / Fold change /veh RCAN1 (11760418_a_at) / RFU FAM167A (11723789_a_at) / Fold change /veh FAM167A (11723789_a_at) / RFU FAM26E (11764081_at) / Fold change /veh FAM26E (11764081_at) / RFU ISYNA1 (11749810_s_at) / Fold change /veh ISYNA1 (11749810_s_at) / RFU ACY1 (11761880_at) / Fold change /veh ACY1 (11761880_at) / RFU 11764098_at / Fold change /veh 11764098_at / RFU SAMD14 (11745864_x_at) / Fold change /veh SAMD14 (11745864_x_at) / RFU NPB (11741838_a_at) / Fold change /veh NPB (11741838_a_at) / RFU TMPRSS6 (11731388_a_at) / Fold change /veh TMPRSS6 (11731388_a_at) / RFU KRTAP10-2 (11738614_at) / Fold change /veh KRTAP10-2 (11738614_at) / RFU ARHGAP8 /// PRR5-ARHGAP8 (11727945_x_at) / Fold change /veh ARHGAP8 /// PRR5-ARHGAP8 (11727945_x_at) / RFU KRTAP5-7 /// NADSYN1 (11734609_at) / Fold change /veh KRTAP5-7 /// NADSYN1 (11734609_at) / RFU RASL12 (11751679_a_at) / Fold change /veh RASL12 (11751679_a_at) / RFU CDKN2B (11736163_a_at) / Fold change /veh CDKN2B (11736163_a_at) / RFU PRF1 (11729649_at) / Fold change /veh PRF1 (11729649_at) / RFU, ZNF638 /// ZNF638-IT1 / Fold change vs veh, ZNF638 /// ZNF638-IT1 / RFU, PANK3 / Fold change vs veh, PANK3 / RFU, SH3YL1 / Fold change vs veh, SH3YL1 / RFU, ZEB2 / Fold change vs veh, ZEB2 / RFU, NRIP1 / Fold change vs veh, NRIP1 / RFU, PTTG1IP / Fold change vs veh, PTTG1IP / RFU, CAPN2 / Fold change vs veh, CAPN2 / RFU, MED14 / Fold change vs veh, MED14 / RFU, SNORA58 / Fold change vs veh, SNORA58 / RFU, C1orf63 / Fold change vs veh, C1orf63 / RFU, LRRFIP1 / Fold change vs veh, LRRFIP1 / RFU, NDUFAF7 / Fold change vs veh, NDUFAF7 / RFU, SLC12A2 / Fold change vs veh, SLC12A2 / RFU, IBTK / Fold change vs veh, IBTK / RFU, ESF1 / Fold change vs veh, ESF1 / Fold change vs veh, TMEM50B / RFU, TAOK1 / Fold change vs veh, TAOK1 / RFU, ACBD3 / Fold change vs veh, ACBD3 / RFU, TMA16 / Fold change vs veh, TMA16 / RFU, RWDD3 / Fold change vs veh, RWDD3 / RFU, BCAT1 / Fold change vs veh, BCAT1 / RFU, EDEM3 / Fold change vs veh, EDEM3 / RFU, TMEM33 / Fold change vs veh, TMEM33 / RFU, WDR75 / Fold change vs veh, WDR75 / RFU, AHCTF1 / Fold change vs veh, AHCTF1 / RFU, TFRC / Fold change vs veh, TFRC / RFU, ZDHHC17 / Fold change vs veh, ZDHHC17 / RFU, NOM1 / Fold change vs veh, NOM1 / RFU, ARL8B / Fold change vs veh, ARL8B / RFU, ZBTB11 / Fold change vs veh, ZBTB11 / RFU, TAMM41 / Fold change vs veh, TAMM41 / RFU, KIAA1704 /// LOC100996395 / Fold change vs veh, KIAA1704 /// LOC100996395 / RFU, ING1 / Fold change vs veh, ING1 / RFU, TRMT61B / Fold change vs veh, TRMT61B / RFU, FUBP3 / Fold change vs veh, FUBP3 / RFU, TP53 / Fold change vs veh, TP53 / RFU, TNKS2 / Fold change vs veh, TNKS2 / RFU, ZFP14 / Fold change vs veh, ZFP14 / RFU, ACTR2 / Fold change vs veh, ACTR2 / RFU, PPP3R1 / Fold change vs veh, PPP3R1 / RFU, PIK3R1 / Fold change vs veh, PIK3R1 / RFU, HNRNPA1 / Fold change vs veh, HNRNPA1 / RFU, RNF170 / Fold change vs veh, RNF170 / RFU, ZNF28 / Fold change vs veh, ZNF28 / RFU, RNGTT / Fold change vs veh, RNGTT / RFU, OGT / Fold change vs veh, OGT / RFU, BRD1 / Fold change vs veh, BRD1 / RFU, MARS / Fold change vs veh, MARS / RFU, ZNF655 / Fold change vs veh, ZNF655 / RFU, FAHD1 / Fold change vs veh, FAHD1 / RFU, BDP1 / Fold change vs veh, BDP1 / RFU, LRRCC1 / Fold change vs veh, LRRCC1 / RFU, ARID1A / Fold change vs veh, ARID1A / RFU, ZNF146 / Fold change vs veh, ZNF146 / RFU, ZNF330 / Fold change vs veh, ZNF330 / RFU, GPN3 / Fold change vs veh, GPN3 / RFU, C9orf123 / Fold change vs veh, C9orf123 / RFU, N4BP2L2 / Fold change vs veh, N4BP2L2 / RFU, ARFIP1 / Fold change vs veh, ARFIP1 / RFU, FAM179B / Fold change vs veh, FAM179B / RFU, BCL10 / Fold change vs veh, BCL10 / RFU, UHRF1BP1L / Fold change vs veh, UHRF1BP1L / RFU, BET1 / Fold change vs veh, BET1 / RFU, CNOT2 / Fold change vs veh, CNOT2 / RFU, ZNF268 / Fold change vs veh, ZNF268 / Fold change vs veh, ZNF507 / RFU, DGCR2 / Fold change vs veh, DGCR2 / RFU, WDSUB1 / Fold change vs veh, WDSUB1 / Fold change vs veh, HSP90B1 /// MIR3652 / RFU, ADSS / Fold change vs veh, ADSS / RFU, GK / Fold change vs veh, GK / RFU, ZNF148 / Fold change vs veh, ZNF148 / RFU, TAF9 / Fold change vs veh, TAF9 / RFU, SLC1A5 / Fold change vs veh, SLC1A5 / RFU, SLMO2 / Fold change vs veh, SLMO2 / RFU, ABCC4 / Fold change vs veh, ABCC4 / RFU, LOC101060439 /// RAP1B / Fold change vs veh, LOC101060439 /// RAP1B / RFU, RFX7 / Fold change vs veh, RFX7 / RFU, GTPBP10 / Fold change vs veh, GTPBP10 / RFU, CNEP1R1 / Fold change vs veh, CNEP1R1 / RFU, BIVM-ERCC5 /// ERCC5 / Fold change vs veh, BIVM-ERCC5 /// ERCC5 / RFU, ILF3 / Fold change vs veh, ILF3 / RFU 11762660_at / Fold change /veh 11762660_at / RFU VCAN (11757783_s_at) / Fold change /veh VCAN (11757783_s_at) / RFU DDX43 (11728927_at) / Fold change /veh DDX43 (11728927_at) / RFU KRT8 (11758188_x_at) / Fold change /veh KRT8 (11758188_x_at) / RFU NKD1 (11759106_at) / Fold change /veh NKD1 (11759106_at) / RFU SRD5A1 (11742802_a_at) / Fold change /veh SRD5A1 (11742802_a_at) / RFU TPSAB1 /// TPSB2 (11721975_s_at) / Fold change /veh TPSAB1 /// TPSB2 (11721975_s_at) / RFU GSTM3 (11746129_a_at) / Fold change /veh GSTM3 (11746129_a_at) / RFU IL23R (11737362_x_at) / Fold change /veh IL23R (11737362_x_at) / RFU TMEM51 (11727254_a_at) / Fold change /veh TMEM51 (11727254_a_at) / RFU PIWIL2 (11732686_x_at) / Fold change /veh PIWIL2 (11732686_x_at) / RFU ORM1 (11744905_x_at) / Fold change /veh ORM1 (11744905_x_at) / RFU CCDC152 (11743942_at) / Fold change /veh CCDC152 (11743942_at) / RFU ECM1 (11717891_a_at) / Fold change /veh ECM1 (11717891_a_at) / RFU IL23R (11748794_a_at) / Fold change /veh IL23R (11748794_a_at) / RFU TNFAIP8L3 (11732012_x_at) / Fold change /veh TNFAIP8L3 (11732012_x_at) / RFU MBOAT4 (11741988_at) / Fold change /veh MBOAT4 (11741988_at) / RFU 11764193_at / Fold change /veh 11764193_at / RFU TMEM53 (11763286_at) / Fold change /veh TMEM53 (11763286_at) / RFU MAGEB2 (11727129_at) / Fold change /veh MAGEB2 (11727129_at) / RFU TMEM200A (11744735_a_at) / Fold change /veh TMEM200A (11744735_a_at) / RFU CCDC152 (11751479_a_at) / Fold change /veh CCDC152 (11751479_a_at) / RFU FAM211A (11726209_a_at) / Fold change /veh FAM211A (11726209_a_at) / RFU RGS16 (11746705_a_at) / Fold change /veh RGS16 (11746705_a_at) / RFU VCAN (11755009_s_at) / Fold change /veh VCAN (11755009_s_at) / RFU RHOB (11743442_s_at) / Fold change /veh RHOB (11743442_s_at) / RFU RGS16 (11720943_a_at) / Fold change /veh RGS16 (11720943_a_at) / RFU RGS16 (11720944_at) / Fold change /veh RGS16 (11720944_at) / RFU, VPS4B / Fold change vs veh, VPS4B / RFU, CREB1 / Fold change vs veh, CREB1 / RFU, DNAJC13 / Fold change vs veh, DNAJC13 / RFU, GNAQ / Fold change vs veh, GNAQ / RFU, CDK5R1 / Fold change vs veh, CDK5R1 / RFU, ZRANB3 / Fold change vs veh, ZRANB3 / RFU, CUL4A / Fold change vs veh, CUL4A / RFU, CCNY / Fold change vs veh, CCNY / RFU, UFL1 / Fold change vs veh, UFL1 / RFU, COG3 / Fold change vs veh, COG3 / RFU, DIAPH2 / Fold change vs veh, DIAPH2 / RFU, SKA2 / Fold change vs veh, SKA2 / RFU, AFF3 / Fold change vs veh, AFF3 / RFU, LMF1 / Fold change vs veh, LMF1 / RFU, IPO11 / Fold change vs veh, IPO11 / RFU, DFFB / Fold change vs veh, DFFB / RFU, FOXP1 / Fold change vs veh, FOXP1 / RFU, CARD8 / Fold change vs veh, CARD8 / RFU, STRN3 / Fold change vs veh, STRN3 / RFU, ADK / Fold change vs veh, ADK / RFU, RASSF2 / Fold change vs veh, RASSF2 / RFU, WIPF1 / Fold change vs veh, WIPF1 / RFU, LARP1B / Fold change vs veh, LARP1B / RFU, RASA1 / Fold change vs veh, RASA1 / RFU, RB1 / Fold change vs veh, RB1 / RFU, PPFIA1 / Fold change vs veh, PPFIA1 / RFU, MAT2A / Fold change vs veh, MAT2A / RFU, CCT5 / Fold change vs veh, CCT5 / RFU, WDR92 / Fold change vs veh, WDR92 / RFU, CUX1 / Fold change vs veh, CUX1 / RFU, TTC7A / Fold change vs veh, TTC7A / RFU, TMEM135 / Fold change vs veh, TMEM135 / RFU, DEPTOR / Fold change vs veh, DEPTOR / RFU, CPM / Fold change vs veh, CPM / RFU, DNAJB6 / Fold change vs veh, DNAJB6 / RFU, CACNA2D3 / Fold change vs veh, CACNA2D3 / RFU, DTX4 / Fold change vs veh, DTX4 / RFU, TFCP2 / Fold change vs veh, TFCP2 / RFU, GMCL1 /// GMCL1P1 / Fold change vs veh, GMCL1 /// GMCL1P1 / RFU, AEBP2 / Fold change vs veh, AEBP2 / RFU, SNHG1 /// SNORD22 /// SNORD25 /// SNORD26 /// SNORD27 /// SNORD28 /// SNORD29 /// SNORD31 / Fold change vs veh, SNHG1 /// SNORD22 /// SNORD25 /// SNORD26 /// SNORD27 /// SNORD28 /// SNORD29 /// SNORD31 / Fold change (Aza/veh), C12orf56 (ProbeSet 11735607_a_at) / Fold change (ACY-1035/veh), C12orf56 (ProbeSet 11735607_a_at) / Fold change (Aza/veh), FGFR1OP (ProbeSet 11751329_s_at) / Fold change (ACY-1035/veh), FGFR1OP (ProbeSet 11751329_s_at) / Fold change (Aza/veh), VPS36 (ProbeSet 11739960_a_at) / Fold change (ACY-1035/veh), VPS36 (ProbeSet 11739960_a_at) / RFU SYPL1 (11715823_x_at) / Fold change /veh SYPL1 (11715823_x_at) / RFU IGFBP7 (11715501_s_at) / Fold change /veh IGFBP7 (11715501_s_at) / RFU REEP3 (11722064_at) / Fold change /veh REEP3 (11722064_at) / RFU IGLL1 (11728026_x_at) / Fold change /veh IGLL1 (11728026_x_at): dose or concentration left out as unconfirmed
Conditions: MV-4-11 cells, 48 hours

Nc1ncn([C@@H]2O[C@H](CO)[C@@H](O)[C@H]2O)c(=O)n1 [azacitidine]
RFU CDHR5 (11726645_a_at): 45.99 RFU
